In PubChem BioAssay (NCI):
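Method: 48-hour compound exposure of cells in 96-well plates, five concentrations, linear interpolation of endpoints. GI50 marks 50% less growth. TGI: concentration producing complete growth inhibition.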

Experiments:
Assay in all cases: NCI anticancer screen, dose series, 48 h
NCI-H226 lung = test system: NCI-H226 lung
M14 melanoma = test system: M14 melanoma
K-562 leukemia = test system: K-562 leukemia
HL-60(TB) leukemia = test system: HL-60(TB) leukemia
TK-10 renal = test system: TK-10 renal
SF-268 CNS = test system: SF-268 CNS
OVCAR-3 ovarian = test system: OVCAR-3 ovarian
RXF 393 renal = test system: RXF 393 renal
PC-3 prostate = test system: PC-3 prostate
BT-549 breast = test system: BT-549 breast
786-0 renal = test system: 786-0 renal
COLO 205 colon = test system: COLO 205 colon
ACHN renal = test system: ACHN renal
LOX IMVI melanoma = test system: LOX IMVI melanoma
NCI/ADR-RES ovarian = test system: NCI/ADR-RES ovarian
HS 578T breast = test system: HS 578T breast
RPMI-8226 leukemia = test system: RPMI-8226 leukemia
SF-539 CNS = test system: SF-539 CNS
HOP-92 NSCLC = test system: HOP-92 NSCLC
NCI-H460 lung = test system: NCI-H460 lung
MOLT-4 leukemia = test system: MOLT-4 leukemia
SK-OV-3 ovarian = test system: SK-OV-3 ovarian
DU-145 prostate = test system: DU-145 prostate
HOP-62 NSCLC = test system: HOP-62 NSCLC
UACC-62 melanoma = test system: UACC-62 melanoma
HCC-2998 colon = test system: HCC-2998 colon
CAKI-1 renal = test system: CAKI-1 renal
SW-620 colon = test system: SW-620 colon
SK-MEL-5 melanoma = test system: SK-MEL-5 melanoma

CC(C)c1sc(NC(=O)c2cc(NC(=O)c3cc(NC(=O)c4cscn4)cn3C)cn2C)nc1C(=O)NCCCN(C)C
GI50 (NCI-H226 lung): 3.22 µM
TGI (NCI-H226 lung): > 28.3 µM
GI50 (M14 melanoma): 5.25 µM
TGI (M14 melanoma): 14.2 µM
GI50 (K-562 leukemia): 1.85 µM
TGI (K-562 leukemia): > 28.3 µM
GI50 (HL-60(TB) leukemia): 6.12 µM
TGI (HL-60(TB) leukemia): 18.8 µM
GI50 (TK-10 renal): > 28.3 µM
TGI (TK-10 renal): > 28.3 µM
GI50 (SF-268 CNS): 2.63 µM
TGI (SF-268 CNS): > 28.3 µM
GI50 (OVCAR-3 ovarian): 2.03 µM
TGI (OVCAR-3 ovarian): > 28.3 µM
GI50 (RXF 393 renal): 1.84 µM
TGI (RXF 393 renal): 6.99 µM
GI50 (PC-3 prostate): 1.25 µM
TGI (PC-3 prostate): 24.8 µM
GI50 (BT-549 breast): 0.994 µM
TGI (BT-549 breast): 4.45 µM
GI50 (786-0 renal): 6.16 µM
TGI (786-0 renal): 15.5 µM
GI50 (COLO 205 colon): 1.86 µM
TGI (COLO 205 colon): 5.68 µM
GI50 (ACHN renal): > 28.3 µM
TGI (ACHN renal): > 28.3 µM
GI50 (LOX IMVI melanoma): 0.739 µM
TGI (LOX IMVI melanoma): 2.21 µM
GI50 (NCI/ADR-RES ovarian): > 28.3 µM
TGI (NCI/ADR-RES ovarian): > 28.3 µM
GI50 (HS 578T breast): 4.55 µM
TGI (HS 578T breast): 26.4 µM
GI50 (RPMI-8226 leukemia): 28.1 µM
TGI (RPMI-8226 leukemia): > 28.3 µM
GI50 (SF-539 CNS): 1.08 µM
TGI (SF-539 CNS): 4.51 µM
GI50 (HOP-92 NSCLC): 0.846 µM
TGI (HOP-92 NSCLC): 9.01 µM
GI50 (NCI-H460 lung): 7.6 µM
TGI (NCI-H460 lung): 22 µM
GI50 (MOLT-4 leukemia): 9.35 µM
TGI (MOLT-4 leukemia): > 28.3 µM
GI50 (SK-OV-3 ovarian): 1.37 µM
TGI (SK-OV-3 ovarian): 16.3 µM
GI50 (DU-145 prostate): 5.49 µM
TGI (DU-145 prostate): > 28.3 µM
GI50 (HOP-62 NSCLC): 6.43 µM
TGI (HOP-62 NSCLC): 19.6 µM
GI50 (UACC-62 melanoma): 3.57 µM
TGI (UACC-62 melanoma): 7.22 µM
GI50 (HCC-2998 colon): 3.86 µM
TGI (HCC-2998 colon): 7.92 µM
GI50 (CAKI-1 renal): 17.5 µM
TGI (CAKI-1 renal): > 28.3 µM
GI50 (SW-620 colon): 4.21 µM
TGI (SW-620 colon): 16.3 µM
GI50 (SK-MEL-5 melanoma): 5.35 µM
TGI (SK-MEL-5 melanoma): 11.1 µM
